Some test systems named below: NCI-H226 lung; OVCAR-5 ovarian; SF-268 CNS; NCI/ADR-RES ovarian; SK-MEL-28 melanoma; SNB-19 CNS; SK-MEL-5 melanoma; PC-3 prostate; SN12C renal.
Common to all, as to assay: NCI-60 cell line screen, 48 h

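Exposure lasted 48 hours, with cells grown in 96-well plates and compounds tested at five concentrations. GI50: concentration for 50% inhibition of growth. TGI marks complete inhibition of growth.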

Turning to `Cc1cc(NCCCCNc2ccnc3cc(Cl)ccc23)nc(Nc2ccc(C(=O)N3CCCCC3)cc2)n1`, the GI50 in the experiment on NCI-H226 lung was 2.62 µM; in the experiment on OVCAR-5 ovarian it was 3.04 µM; in the experiment on SF-268 CNS, 1.77 µM; with NCI/ADR-RES ovarian it was 3.04 µM; with SK-MEL-28 melanoma it was 1.68 µM; in the experiment with SNB-19 CNS, 3.25 µM. In addition, the GI50 in the experiment with SK-MEL-5 melanoma is 1.7 µM; in the experiment on PC-3 prostate it was 1.32 µM. Further, the TGI in the experiment with NCI-H226 lung turned out to be 7.81 µM; in the experiment on OVCAR-5 ovarian it was 9.22 µM; with SF-268 CNS, 3.64 µM; with NCI/ADR-RES ovarian, 11.4 µM; in the experiment on SK-MEL-28 melanoma, 3.37 µM; with SNB-19 CNS, 13.3 µM. The TGI is 3.07 µM with SK-MEL-5 melanoma and 3.24 µM in the experiment on PC-3 prostate.
As to `COc1cc(/C=N\O[Si](C)(C)C(C)(C)C)ccc1O[Si](C)(C)C(C)(C)C`, the TGI with OVCAR-5 ovarian is 68.7 µM; in the experiment on SF-268 CNS it was greater than 100 µM; in the experiment with SNB-19 CNS, greater than 100 µM; with SK-MEL-5 melanoma, greater than 100 µM; in the experiment on SN12C renal, greater than 100 µM.
As to `COc1cc(-c2nnc3n2NC=C(C(=O)O)S3)cc(OC)c1OC`, the TGI with NCI-H226 lung, in the experiment with OVCAR-5 ovarian, in the experiment on SF-268 CNS, in the experiment on SK-MEL-28 melanoma, in the experiment on SNB-19 CNS and with SK-MEL-5 melanoma was greater than 100 µM each time. Further, in the experiment on SN12C renal, the TGI is greater than 100 µM.
As for `CCOC(=O)C(C)(c1c(C)[nH]c2ccccc12)c1c(C)[nH]c2ccccc12`, the TGI in the experiment with NCI-H226 lung was 32.9 µM; in the experiment on OVCAR-5 ovarian, 35.5 µM; with SK-MEL-28 melanoma, 30.5 µM; in the experiment with SK-MEL-5 melanoma, 31.1 µM.
Turning to `NC(CCc1ncc(C(=O)O)s1)C(=O)O` (stereo unspecified), the TGI with NCI-H226 lung, in the experiment on SK-MEL-28 melanoma, with SK-MEL-5 melanoma and in the experiment on SN12C renal was greater than 100 µM in each case.
In the case of `Cc1ccc(C)c(N2C(=O)C(=O)C(c3nc4ccccc4o3)/C(=N/N)C2=O)c1` (stereo unspecified), the TGI with NCI-H226 lung, with SF-268 CNS, in the experiment with SK-MEL-28 melanoma, in the experiment with SNB-19 CNS, in the experiment with SK-MEL-5 melanoma and in the experiment on SN12C renal was greater than 100 µM in each case.
Take `CC1CCC(C(C)(C)c2ccccc2)C(=O)C1` (stereo unspecified): the TGI in the experiment with OVCAR-5 ovarian, in the experiment with SF-268 CNS, with SNB-19 CNS, in the experiment with SK-MEL-5 melanoma and with SN12C renal was greater than 100 µM in each case.
On to `NC(=O)c1cn(Cc2ccccc2)c(=O)n1Cc1ccccc1`, for which the TGI in the experiment with NCI-H226 lung, with OVCAR-5 ovarian, with SF-268 CNS, with SK-MEL-28 melanoma, with SNB-19 CNS and in the experiment on SK-MEL-5 melanoma was greater than 100 µM throughout. Also, the TGI in the experiment on SN12C renal is greater than 100 µM.
Regarding `CCOc1ccc(N=Cc2c3ccccc3nc3ccccc23)cc1`, the TGI with NCI-H226 lung, with SF-268 CNS, in the experiment on SK-MEL-28 melanoma, in the experiment on SNB-19 CNS, in the experiment on SK-MEL-5 melanoma and with SN12C renal was greater than 100 µM in each case.
`O=C1c2ccc3c4ccccc4n(-c4ccccc4)c3c2C(=O)N1c1ccc(Cl)cc1`: the TGI with NCI-H226 lung, in the experiment on OVCAR-5 ovarian, in the experiment with SF-268 CNS, with SNB-19 CNS, in the experiment with SK-MEL-5 melanoma and in the experiment with SN12C renal was greater than 100 µM in each case.
On to `CCCCCCCCCCCCCCCCCCC1=C(O)C(=O)C=C(OC)C1=O`, for which the TGI with NCI-H226 lung, with OVCAR-5 ovarian, in the experiment with SF-268 CNS, with SK-MEL-28 melanoma, in the experiment with SNB-19 CNS and in the experiment on SK-MEL-5 melanoma was greater than 100 µM throughout. The same molecule displayed a TGI in the experiment on SN12C renal greater than 100 µM.
On to `CC12CCC(=O)N1c1cccnc1N2` (stereo unspecified), for which the TGI in the experiment on NCI-H226 lung, in the experiment with OVCAR-5 ovarian, in the experiment on SF-268 CNS, with SK-MEL-28 melanoma, with SK-MEL-5 melanoma and in the experiment on SN12C renal was greater than 100 µM each time.
`CCOC(=O)C1=C(Nc2ccc(Br)cc2)OCC1=O`: the TGI with NCI-H226 lung, with SF-268 CNS, with SK-MEL-28 melanoma, with SNB-19 CNS, in the experiment on SK-MEL-5 melanoma and with SN12C renal was greater than 100 µM in each case.
On to `O=C1C=CC(=CC=C2C=CN(CCCCCCCCCCC(=O)NCCCCCCCCCCCC(=O)O)C=C2)C=C1`, for which the TGI with NCI-H226 lung, in the experiment on OVCAR-5 ovarian, in the experiment with SF-268 CNS, in the experiment with SK-MEL-28 melanoma, in the experiment with SNB-19 CNS and in the experiment with SK-MEL-5 melanoma was greater than 100 µM each time. In the experiment on SN12C renal, this molecule gave a TGI greater than 100 µM.
On to `COc1cc(/C=C2\CCC/C(=C\c3ccc(OCC4CO4)c(OC)c3)C2=O)ccc1OCC1CO1` (stereo unspecified), for which the GI50 in the experiment on OVCAR-5 ovarian is 2.87 µM; with SF-268 CNS, 2.62 µM; in the experiment on NCI/ADR-RES ovarian, 4.86 µM; with SK-MEL-28 melanoma, 1.81 µM; in the experiment with SNB-19 CNS it was 4.73 µM; in the experiment on SK-MEL-5 melanoma it was 1.74 µM. Also, the values for the GI50 in the experiment on SN12C renal and in the experiment with PC-3 prostate were 2.84 µM and 3.13 µM, respectively. Besides, the TGI with OVCAR-5 ovarian was 10.6 µM; in the experiment with SF-268 CNS it was 8.41 µM; with NCI/ADR-RES ovarian, greater than 100 µM; in the experiment on SK-MEL-28 melanoma, 3.43 µM; with SNB-19 CNS it was 76.4 µM; in the experiment on SK-MEL-5 melanoma, 3.52 µM. Besides, the values for the TGI in the experiment on SN12C renal and with PC-3 prostate were 8.71 µM and 45.7 µM, respectively.
On to `C[Si](C)(C)CN1C(=O)c2ccccc2C1(O)c1ccccc1` (stereo unspecified), for which the TGI in the experiment on NCI-H226 lung, with OVCAR-5 ovarian, in the experiment on SF-268 CNS, in the experiment on SK-MEL-28 melanoma, in the experiment on SNB-19 CNS and in the experiment with SK-MEL-5 melanoma was greater than 100 µM in each case. Also, the TGI in the experiment with SN12C renal was greater than 100 µM.
With `Cc1ccc(N2C(=O)N(c3ccc(C)cc3)C3(SC=NN3C)C2=O)cc1` (stereo unspecified), the TGI in the experiment on NCI-H226 lung, in the experiment on SF-268 CNS, in the experiment with SK-MEL-28 melanoma, in the experiment on SNB-19 CNS, with SK-MEL-5 melanoma and in the experiment on SN12C renal was greater than 100 µM each time.

The values are drawn from PubChem BioAssay (NCI).
